The test system of this test is H3K27 methylation in G401 cell. In words: ELISA (H3K27 methylation) assay. The format is cell-based. The settings on record: Homo sapiens, G-401; ELISA Qualified assay (H3K27 methylation); read-out: (c) IC50 (μM), ELISA Qualified. From the text:
ELISA (H3K27 Methylation) Assay
A general note: An ELISA detects its analyte on a solid surface through an enzyme-linked reagent.
On to `Cn1nccc1-c1cnc(NCc2cccc3c2CCO3)n2cnnc12` [Example 152, N-((2,3-dihydrobenzofuran-4-yl)methyl)-8-(1-methyl-1H-pyrazol-5-yl)-[1,2,4]triazolo[4,3-c]pyrimidin-5-amine], for which the IC50 was 0.008 µM.

Regarding `Cc1nn(C(C)C)c(C)c1-c1cnc(NCc2cccc3c2CCO3)n2cnnc12` [Example 153, N-((2,3-dihydrobenzofuran-4-yl)methyl)-8-(1-isopropyl-3,5-dimethyl-1H-pyrazol-4-yl)-[1,2,4]triazolo[4,3-c]pyrimidin-5-amine], the IC50 is 0.0073 µM.

For the compound `FC(F)c1ccc(-c2cnc(NCc3cccc4c3CCO4)n3cnnc23)cn1` [Example 154, 8-(6-(difluoromethyl)pyridin-3-yl)-N-((2,3-dihydrobenzofuran-4-yl)methyl)-[1,2,4]triazolo[4,3-c]pyrimidin-5-amine], the IC50 was found to be 0.0968 µM.

`COc1ccc(-c2cnc(NCc3c(F)ccc4c3CCO4)n3cnnc23)c(C)n1` [Example 155, N-((5-fluoro-2,3-dihydrobenzofuran-4-yl)methyl)-8-(6-methoxy-2-methylpyridin-3-yl)-[1,2,4]triazolo[4,3-c]pyrimidin-5-amine]: the half-inhibitory concentration (IC50) stood at 0.078 µM.

In the case of `Cc1nc(N)ccc1-c1cnc(NCc2c(F)ccc3c2CCO3)n2cnnc12` [Example 156, 8-(6-amino-2-methylpyridin-3-yl)-N-((5-fluoro-2,3-dihydrobenzofuran-4-yl)methyl)-[1,2,4]triazolo[4,3-c]pyrimidin-5-amine], the IC50 was determined as 0.0261 µM.

Take `Fc1ccc(-c2cnc(NCc3c(F)ccc4c3CCO4)n3cnnc23)c(Cl)c1` [Example 157, 8-(2-chloro-4-fluorophenyl)-N-((5-fluoro-2,3-dihydrobenzofuran-4-yl)methyl)-[1,2,4]triazolo[4,3-c]pyrimidin-5-amine]: the IC50 was determined as 0.445 µM.

Regarding `Cc1nn(CCO)c(C)c1-c1cnc(NCc2c(F)ccc3c2CCO3)n2cnnc12` [Example 158, 2-(4-(5-(((5-fluoro-2,3-dihydrobenzofuran-4-yl)methyl)amino)-[1,2,4]triazolo[4,3-c]pyrimidin-8-yl)-3,5-dimethyl-1H-pyrazol-1-yl)ethanol], the IC50 is 0.0067 µM.

As for `Fc1ccc2c(c1CNc1ncc(-c3ccncc3Cl)c3nncn13)CCO2` [Example 162, 8-(3-chloropyridin-4-yl)-N-((5-fluoro-2,3-dihydrobenzofuran-4-yl)methyl)-[1,2,4]triazolo[4,3-c]pyrimidin-5-amine], the IC50 came to 0.0273 µM.

For the compound `Cc1ccc(-c2cnc(NCc3c(F)ccc4c3CCO4)n3cnnc23)c(C)n1` [Example 167, 8-(2,6-dimethylpyridin-3-yl)-N-((5-fluoro-2,3-dihydrobenzofuran-4-yl)methyl)-[1,2,4]triazolo[4,3-c]pyrimidin-5-amine], the 50% inhibitory concentration (IC50) turned out to be 0.0393 µM.

In the case of `Fc1ccc2c(c1CNc1ncc(-c3cccnc3C(F)F)c3nncn13)CCO2` [Example 168, 8-(2-(difluoromethyl)pyridin-3-yl)-N-((5-fluoro-2,3-dihydrobenzofuran-4-yl)methyl)-[1,2,4]triazolo[4,3-c]pyrimidin-5-amine], the IC50 was 0.002 µM.

With `Cn1nccc1-c1cnc(NCc2c(F)ccc3c2CCO3)n2cnnc12` [Example 169, N-((5-fluoro-2,3-dihydrobenzofuran-4-yl)methyl)-8-(1-methyl-1H-pyrazol-5-yl)-[1,2,4]triazolo[4,3-c]pyrimidin-5-amine], the IC50 amounted to 0.0029 µM.

On to `Cn1cc(-c2cnc(NCc3c(F)ccc4c3CCO4)n3cnnc23)c(C(F)(F)F)n1` [Example 170, N-((5-fluoro-2,3-dihydrobenzofuran-4-yl)methyl)-8-(1-methyl-3-(trifluoromethyl)-1H-pyrazol-4-yl)-[1,2,4]triazolo[4,3-c]pyrimidin-5-amine], for which the IC50 is 0.0232 µM.

With `CC(=O)NCc1ccc(-c2cnc(NCc3c(F)ccc4c3CCO4)n3cnnc23)cn1` [Example 171, N-((5-(5-(((5-fluoro-2,3-dihydrobenzofuran-4-yl)methyl)amino)-[1,2,4]triazolo[4,3-c]pyrimidin-8-yl)pyridin-2-yl)methyl)acetamide], the 50% inhibitory concentration (IC50) is 0.0265 µM.

Take `Cc1c(-c2cnc(NCc3c(F)ccc4c3CCO4)n3cnnc23)cnn1C` [Example 172, 8-(1,5-dimethyl-1H-pyrazol-4-yl)-N-((5-fluoro-2,3-dihydrobenzofuran-4-yl)methyl)-[1,2,4]triazolo[4,3-c]pyrimidin-5-amine]: the IC50 is 0.0044 µM.

Consider `Cc1cc(C2CC2)ncc1-c1cnc(NCc2c(F)ccc3c2CCO3)n2cnnc12` [Example 173, 8-(6-cyclopropyl-4-methylpyridin-3-yl)-N-((5-fluoro-2,3-dihydrobenzofuran-4-yl)methyl)-[1,2,4]triazolo[4,3-c]pyrimidin-5-amine], for which the IC50 stood at 0.0152 µM.

In the case of `COc1ncc(-c2cnc(NCc3c(F)ccc4c3CCO4)n3cnnc23)cn1` [Example 174, N-((5-fluoro-2,3-dihydrobenzofuran-4-yl)methyl)-8-(2-methoxypyrimidin-5-yl)-[1,2,4]triazolo[4,3-c]pyrimidin-5-amine], the IC50 is 0.0042 µM.

On to `COc1ncc(-c2cnc(NCc3c(F)ccc4c3CCO4)n3cnnc23)c(C)n1` [Example 175, N-((5-fluoro-2,3-dihydrobenzofuran-4-yl)methyl)-8-(2-methoxy-4-methylpyrimidin-5-yl)-[1,2,4]triazolo[4,3-c]pyrimidin-5-amine], for which the IC50 worked out at 0.0034 µM.

For `Cc1ncncc1-c1cnc(NCc2c(F)ccc3c2CCO3)n2cnnc12` [Example 176, N-((5-fluoro-2,3-dihydrobenzofuran-4-yl)methyl)-8-(4-methylpyrimidin-5-yl)-[1,2,4]triazolo[4,3-c]pyrimidin-5-amine], the IC50 is 0.0046 µM.

Turning to `Cc1nccc(-c2cnc(NCc3c(F)ccc4c3CCO4)n3cnnc23)c1C` [Example 177, 8-(2,3-dimethylpyridin-4-yl)-N-((5-fluoro-2,3-dihydrobenzofuran-4-yl)methyl)-[1,2,4]triazolo[4,3-c]pyrimidin-5-amine], the IC50 is 0.0044 µM.

In the case of `Cc1cc(C#N)ccc1-c1cnc(NCc2c(F)ccc3c2CCO3)n2cnnc12` [Example 178, 4-(5-(((5-fluoro-2,3-dihydrobenzofuran-4-yl)methyl)amino)-[1,2,4]triazolo[4,3-c]pyrimidin-8-yl)-3-methylbenzonitrile], the IC50 was 0.0114 µM.

Turning to `Cc1nn(C2CC2)c(C)c1-c1cnc(NCc2c(F)ccc3c2CCO3)n2cnnc12` [Example 179, 8-(1-cyclopropyl-3,5-dimethyl-1H-pyrazol-4-yl)-N-((5-fluoro-2,3-dihydrobenzofuran-4-yl)methyl)-[1,2,4]triazolo[4,3-c]pyrimidin-5-amine], the IC50 worked out at 0.0091 µM.

`Cc1c(-c2cnc(NCc3c(F)ccc4c3CCO4)n3cnnc23)ccnc1F` [Example 180, N-((5-fluoro-2,3-dihydrobenzofuran-4-yl)methyl)-8-(2-fluoro-3-methylpyridin-4-yl)-[1,2,4]triazolo[4,3-c]pyrimidin-5-amine]: the IC50 came out at 0.0124 µM.

For `Cc1c(-c2cnc(NCc3c(F)ccc4c3CCO4)n3cnnc23)ccnc1C(F)F` [Example 181, 8-(2-(difluoromethyl)-3-methylpyridin-4-yl)-N-((5-fluoro-2,3-dihydrobenzofuran-4-yl)methyl)-[1,2,4]triazolo[4,3-c]pyrimidin-5-amine], the IC50 was found to be 0.0208 µM.

With `Cc1c(-c2cnc(NCc3c(F)ccc4c3CCO4)n3cnnc23)ccnc1CF` [Example 182, N-((5-fluoro-2,3-dihydrobenzofuran-4-yl)methyl)-8-(2-(fluoromethyl)-3-methylpyridin-4-yl)-[1,2,4]triazolo[4,3-c]pyrimidin-5-amine], the IC50 was 0.0025 µM.

Consider `Cc1cnc(F)cc1-c1cnc(NCc2c(F)ccc3c2CCO3)n2cnnc12` [Example 183, N-((5-fluoro-2,3-dihydrobenzofuran-4-yl)methyl)-8-(2-fluoro-5-methylpyridin-4-yl)-[1,2,4]triazolo[4,3-c]pyrimidin-5-amine], for which the half-inhibitory concentration (IC50) worked out at 0.0106 µM.

In the case of `Cc1cnc(C(F)(F)F)cc1-c1cnc(NCc2c(F)ccc3c2CCO3)n2cnnc12` [Example 184, N-((5-fluoro-2,3-dihydrobenzofuran-4-yl)methyl)-8-(5-methyl-2-(trifluoromethyl)pyridin-4-yl)-[1,2,4]triazolo[4,3-c]pyrimidin-5-amine], the IC50 was 0.0777 µM.

Take `Fc1ccc2c(c1CNc1ncc(-c3ccnc(C(F)(F)F)c3)c3nncn13)CCO2` [Example 185, N-((5-fluoro-2,3-dihydrobenzofuran-4-yl)methyl)-8-(2-(trifluoromethyl)pyridin-4-yl)-[1,2,4]triazolo[4,3-c]pyrimidin-5-amine]: the IC50 was 0.0468 µM.

Regarding `Cc1nn(C[C@@H](C)O)c(C)c1-c1cnc(NCc2c(F)ccc3c2CCO3)n2cnnc12` [Example 186, (2R)-1-(4-(5-(((5-fluoro-2,3-dihydrobenzofuran-4-yl)methyl)amino)-[1,2,4]triazolo[4,3-c]pyrimidin-8-yl)-3,5-dimethyl-1H-pyrazol-1-yl)propan-2-ol], the IC50 amounted to 0.0068 µM.

Consider `Cc1nn(C[C@H](C)O)c(C)c1-c1cnc(NCc2c(F)ccc3c2CCO3)n2cnnc12` [Example 187, (2S)-1-(4-(5-(((5-fluoro-2,3-dihydrobenzofuran-4-yl)methyl)amino)-[1,2,4]triazolo[4,3-c]pyrimidin-8-yl)-3,5-dimethyl-1H-pyrazol-1-yl)propan-2-ol], for which the IC50 worked out at 0.012 µM.

Take `Cc1c(-c2cnc(NCc3c(F)ccc4c3CCO4)n3cnnc23)cnn1C(C)C` [Example 188, N-((5-fluoro-2,3-dihydrobenzofuran-4-yl)methyl)-8-(1-isopropyl-5-methyl-1H-pyrazol-4-yl)-[1,2,4]triazolo[4,3-c]pyrimidin-5-amine]: the IC50 was 0.0036 µM.

For the compound `Cc1c(-c2cnc(NCc3c(F)ccc4c3CCO4)n3cnnc23)cnn1CCO` [Example 189, 2-(4-(5-(((5-fluoro-2,3-dihydrobenzofuran-4-yl)methyl)amino)-[1,2,4]triazolo[4,3-c]pyrimidin-8-yl)-5-methyl-1H-pyrazol-1-yl)ethanol], the IC50 was 0.0052 µM.

By IC50 is commonly meant the concentration that inhibits the measured activity by half.

(Values after patent publication US11207325B2, “Triazolopyrimidine compounds and uses thereof” (Novartis AG, priority 2014, dated 2021).)
